Measurements from ChEMBL document CHEMBL1126726 (J Med Chem, 1993).

Experiments:
[1] = species: Canis familiaris; experiment: Intrinsic activity was measured as maximum contraction relative to 5-HT in dog saphenous vein; format: functional, Canis lupus familiaris
[2] = species: Oryctolagus cuniculus; experiment: (§1) Intrinsic activity was measured as maximum contraction relative to 5-HT in rabbit basilar artery; format: functional
[3] = as §1; format: functional, Oryctolagus cuniculus
[4] = species: Canis familiaris; experiment: In vitro evaluation in the dog saphenous vein for maximal response; format: functional, organism-based; conditions: Canis lupus familiaris
[5] = species: Oryctolagus cuniculus; experiment: In vitro evaluation in rabbit basilar artery for maximal response; format: functional, organism-based
[6] = biological target: Serotonin 2 (5-HT2) receptor (Rattus norvegicus) (UniProt P30994+P08909+P14842); conditions: Cortex
Serotonin 2 (5-HT2) receptor (Rattus norvegicus), sequence (P14842 whole entry, looked up, one chain of several): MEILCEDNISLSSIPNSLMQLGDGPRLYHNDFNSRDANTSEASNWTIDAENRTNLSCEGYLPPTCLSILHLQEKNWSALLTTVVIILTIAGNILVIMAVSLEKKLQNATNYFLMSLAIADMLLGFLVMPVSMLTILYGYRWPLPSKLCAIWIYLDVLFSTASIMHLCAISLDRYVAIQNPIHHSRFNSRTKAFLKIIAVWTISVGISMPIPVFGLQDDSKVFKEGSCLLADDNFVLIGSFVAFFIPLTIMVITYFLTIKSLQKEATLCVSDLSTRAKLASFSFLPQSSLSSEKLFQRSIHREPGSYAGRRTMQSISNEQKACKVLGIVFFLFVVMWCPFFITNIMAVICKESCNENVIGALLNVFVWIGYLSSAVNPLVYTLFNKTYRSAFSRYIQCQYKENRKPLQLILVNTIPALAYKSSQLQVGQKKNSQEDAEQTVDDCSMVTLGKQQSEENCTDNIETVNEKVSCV
Serotonin 2 (5-HT2) receptor (Rattus norvegicus), sequence (P30994 whole entry, looked up, one chain of several): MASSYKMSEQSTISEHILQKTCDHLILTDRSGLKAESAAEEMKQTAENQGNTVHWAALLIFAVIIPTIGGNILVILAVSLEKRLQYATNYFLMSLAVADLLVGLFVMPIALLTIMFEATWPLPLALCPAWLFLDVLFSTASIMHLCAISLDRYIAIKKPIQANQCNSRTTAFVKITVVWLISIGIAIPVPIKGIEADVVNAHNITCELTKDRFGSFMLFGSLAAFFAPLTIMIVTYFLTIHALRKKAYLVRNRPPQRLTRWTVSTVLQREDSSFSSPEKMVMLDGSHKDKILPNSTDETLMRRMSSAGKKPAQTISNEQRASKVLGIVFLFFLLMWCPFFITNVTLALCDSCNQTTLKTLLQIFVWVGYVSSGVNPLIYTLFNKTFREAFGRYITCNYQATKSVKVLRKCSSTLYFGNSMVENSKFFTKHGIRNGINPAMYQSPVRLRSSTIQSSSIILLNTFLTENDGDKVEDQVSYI

[7] = biological target: T1, 5-hydroxytryptamine receptor 2C (Rattus norvegicus) (UniProt P08909)
T1 sequence (whole entry): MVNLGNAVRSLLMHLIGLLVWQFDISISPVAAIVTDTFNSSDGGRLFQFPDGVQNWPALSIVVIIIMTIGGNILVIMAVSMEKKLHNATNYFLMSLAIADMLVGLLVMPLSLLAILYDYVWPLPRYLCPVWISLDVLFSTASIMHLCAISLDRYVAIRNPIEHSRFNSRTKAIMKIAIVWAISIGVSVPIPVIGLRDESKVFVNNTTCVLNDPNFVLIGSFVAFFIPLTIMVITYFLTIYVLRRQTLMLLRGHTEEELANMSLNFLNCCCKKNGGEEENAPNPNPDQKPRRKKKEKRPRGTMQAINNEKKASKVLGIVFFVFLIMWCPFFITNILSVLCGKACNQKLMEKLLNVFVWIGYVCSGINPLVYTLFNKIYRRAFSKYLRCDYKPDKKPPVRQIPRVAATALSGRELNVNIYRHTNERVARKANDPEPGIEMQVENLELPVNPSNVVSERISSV

[8] = biological target: Serotonin 2 (5-HT2) receptor (Homo sapiens) (UniProt P41595+P28223+P28335)
Serotonin 2 (5-HT2) receptor (Homo sapiens), sequence (P28223 whole entry, looked up): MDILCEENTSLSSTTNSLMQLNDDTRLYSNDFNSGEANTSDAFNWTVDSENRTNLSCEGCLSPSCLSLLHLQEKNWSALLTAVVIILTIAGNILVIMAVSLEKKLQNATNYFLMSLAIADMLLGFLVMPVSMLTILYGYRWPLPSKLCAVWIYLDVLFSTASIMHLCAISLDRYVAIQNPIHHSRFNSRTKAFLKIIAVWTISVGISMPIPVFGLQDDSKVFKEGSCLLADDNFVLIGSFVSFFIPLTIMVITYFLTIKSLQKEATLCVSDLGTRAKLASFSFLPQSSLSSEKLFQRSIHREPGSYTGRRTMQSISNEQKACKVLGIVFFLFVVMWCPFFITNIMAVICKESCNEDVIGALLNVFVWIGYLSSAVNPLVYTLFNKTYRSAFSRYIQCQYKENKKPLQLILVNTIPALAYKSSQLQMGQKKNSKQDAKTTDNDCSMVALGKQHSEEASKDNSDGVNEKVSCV
Serotonin 2 (5-HT2) receptor (Homo sapiens), sequence (P28335 whole entry, looked up): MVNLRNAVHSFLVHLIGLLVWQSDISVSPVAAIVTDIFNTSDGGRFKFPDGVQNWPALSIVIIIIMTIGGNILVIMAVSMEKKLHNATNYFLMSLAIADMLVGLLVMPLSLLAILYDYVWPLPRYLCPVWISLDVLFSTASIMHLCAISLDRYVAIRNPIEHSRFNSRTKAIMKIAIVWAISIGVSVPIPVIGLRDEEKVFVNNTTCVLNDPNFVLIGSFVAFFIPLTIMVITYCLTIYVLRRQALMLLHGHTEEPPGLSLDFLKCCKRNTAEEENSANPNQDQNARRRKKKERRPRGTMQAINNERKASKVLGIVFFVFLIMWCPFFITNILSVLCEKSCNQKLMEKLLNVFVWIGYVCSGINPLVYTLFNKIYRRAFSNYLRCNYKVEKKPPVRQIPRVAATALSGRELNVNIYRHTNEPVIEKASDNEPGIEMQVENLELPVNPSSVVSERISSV
Serotonin 2 (5-HT2) receptor (Homo sapiens), sequence (P41595 whole entry, looked up): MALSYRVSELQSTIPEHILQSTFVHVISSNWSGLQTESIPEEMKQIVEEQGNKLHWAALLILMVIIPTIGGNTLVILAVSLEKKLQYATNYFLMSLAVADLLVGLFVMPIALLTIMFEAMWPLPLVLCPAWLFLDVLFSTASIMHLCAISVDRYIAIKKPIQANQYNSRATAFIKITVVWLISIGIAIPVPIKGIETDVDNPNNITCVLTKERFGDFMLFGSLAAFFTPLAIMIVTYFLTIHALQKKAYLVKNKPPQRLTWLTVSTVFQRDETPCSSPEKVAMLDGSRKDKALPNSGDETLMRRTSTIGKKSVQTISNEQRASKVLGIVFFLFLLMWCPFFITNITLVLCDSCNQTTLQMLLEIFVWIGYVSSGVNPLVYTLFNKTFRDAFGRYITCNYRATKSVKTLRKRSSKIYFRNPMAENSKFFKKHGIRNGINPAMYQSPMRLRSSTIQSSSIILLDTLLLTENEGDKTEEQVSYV

## CCN(CC)C(=O)N[C@H]1C=C2c3cccc4[nH]cc(c34)C[C@H]2N(C)C1 [LISURIDE]
[1]
  IA: 0.73
[2]
  IA: 0.73

## NCCc1c[nH]c2ccc(O)cc12 [SEROTONIN]
[1]
  IA: 1
[3]
  IA: 1

## CNS(=O)(=O)Cc1ccc2[nH]cc(CCN(C)C)c2c1
[4]
  EC50: 0.4 µM
[1]
  IA: 0.78
[2]
  IA: 0.74
[5]
  EC50: 2.4 µM
[6]
  pKD: > 4

## NCCc1c[nH]c2ccc(C(N)=O)cc12
[7]
  pKD: 6.2
[8]
  pKD: 4.7
